Reference: article PMC10379611 (International Journal of Molecular Sciences, 2023)
pIC50: −log10 of the molar value. Read-outs that look alike come from different tables or passages of the source.

What was measured:
[1] = target: T1, OATP1A2 (Homo sapiens, UniProt P46721); experiment: OATP1A2 uptake assay (SR101) in overexpressing A431 cells
T1 sequence (P46721 1-670): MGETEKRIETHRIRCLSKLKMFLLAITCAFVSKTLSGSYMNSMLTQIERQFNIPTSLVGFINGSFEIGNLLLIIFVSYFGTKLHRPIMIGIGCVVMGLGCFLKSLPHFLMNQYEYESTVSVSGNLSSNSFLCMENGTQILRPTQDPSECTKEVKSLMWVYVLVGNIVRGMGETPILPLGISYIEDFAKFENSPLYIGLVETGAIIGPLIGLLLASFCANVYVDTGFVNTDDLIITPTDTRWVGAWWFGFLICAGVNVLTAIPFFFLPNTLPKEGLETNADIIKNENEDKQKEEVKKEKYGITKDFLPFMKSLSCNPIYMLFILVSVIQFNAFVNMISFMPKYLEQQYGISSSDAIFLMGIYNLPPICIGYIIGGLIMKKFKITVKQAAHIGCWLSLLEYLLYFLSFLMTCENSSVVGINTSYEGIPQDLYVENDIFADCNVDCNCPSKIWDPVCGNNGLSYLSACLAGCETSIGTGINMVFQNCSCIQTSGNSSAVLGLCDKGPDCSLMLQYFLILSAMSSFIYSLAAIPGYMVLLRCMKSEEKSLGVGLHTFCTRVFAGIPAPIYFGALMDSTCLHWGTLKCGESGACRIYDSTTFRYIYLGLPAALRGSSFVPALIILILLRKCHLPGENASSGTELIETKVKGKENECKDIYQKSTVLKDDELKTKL
Protocol: To study the function of OATPs, we used A431 cells overexpressing OATP1A2, OATP1B1, OATP1B3, or OATP2B1 and mock-transfected A431 cells, generated as previously described, as controls. The interactions between OATPs and the test compounds were studied in a microplate-based indirect assay by employing fluorescent dye substrates: pyranine for OATP1B1, OATP1B3, OATP2B1 and sulforhodamine 101 for OATP1A2 [44, 45]. Briefly, OATP-overexpressing A431 cells and mock-transfected A431 cells were seeded on 96-well plates (8 × 10^4 cells/well). The next day, the cells were washed three times with phosphate buffered saline (PBS, pH 7.4) and preincubated with 50 μL uptake buffer (125 mM NaCl, 4.8 mM KCl, 1.2 mM CaCl2, 1.2 mM KH2PO4, 12 mM MgSO4, 25 mM MES (2-(Nmorpholino) ethanesulfonic acid, and 5.6 mM glucose, pH 5.5 for OATP2B1 and pH 7.4 for OATP1A2, OATP1B1, or OATP1B3) at 37 °C for 5 min in the presence or absence of the tested compounds. The reaction was started by the addition of a final concentration of 20 μM pyranine (OATP1B1, OATP1B3, OATP2B1) or 0.5 μM sulforhodamine 101 (OATP1A2). After incubation at 37 °C for 10 min, the reactions were stopped and the cells were washed three times with ice-cold PBS. Fluorescence was measured using an Enspire plate reader (Perkin Elmer, Waltham, MA, USA) (Ex/Em: 460/510 nm (pyranine) or 586/605 nm (sulforhodamine 101), and OATP-dependent transport activity was determined by subtracting the fluorescence measured in mock-transfected cells.

[2] = target: T2, OATP2B1 (Homo sapiens, UniProt O94956); experiment: OATP2B1 uptake assay (pyranine) in overexpressing A431 cells; type: cell-based; conditions: for pIC50: pyranine substrate, A431 cells, pH 5.5, read-out: estimated IC50, OATP2B1
T2 construct: expressed in transfected cells; host or cells: A431
T2 sequence (O94956 1-709): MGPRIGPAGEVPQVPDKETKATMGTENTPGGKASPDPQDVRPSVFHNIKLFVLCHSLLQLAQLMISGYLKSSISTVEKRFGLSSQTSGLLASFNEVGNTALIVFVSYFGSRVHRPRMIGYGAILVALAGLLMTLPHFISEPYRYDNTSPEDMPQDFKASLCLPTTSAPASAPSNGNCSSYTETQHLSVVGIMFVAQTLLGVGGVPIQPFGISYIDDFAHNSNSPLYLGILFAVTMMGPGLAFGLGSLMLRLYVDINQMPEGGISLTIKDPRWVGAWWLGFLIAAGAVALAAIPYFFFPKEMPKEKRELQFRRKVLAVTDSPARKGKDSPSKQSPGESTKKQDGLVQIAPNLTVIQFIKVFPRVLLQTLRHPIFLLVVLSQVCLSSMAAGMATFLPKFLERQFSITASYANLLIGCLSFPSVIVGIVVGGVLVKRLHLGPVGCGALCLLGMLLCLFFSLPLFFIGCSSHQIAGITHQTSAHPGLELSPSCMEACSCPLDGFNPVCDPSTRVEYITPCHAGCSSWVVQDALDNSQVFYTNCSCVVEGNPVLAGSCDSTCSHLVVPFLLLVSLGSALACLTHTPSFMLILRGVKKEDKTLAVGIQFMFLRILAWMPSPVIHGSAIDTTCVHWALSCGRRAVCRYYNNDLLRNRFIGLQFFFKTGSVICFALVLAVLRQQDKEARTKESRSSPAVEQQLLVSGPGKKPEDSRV
Protocol: To study the function of OATPs, we used A431 cells overexpressing OATP1A2, OATP1B1, OATP1B3, or OATP2B1 and mock-transfected A431 cells, generated as previously described, as controls. […] Briefly, OATP-overexpressing A431 cells and mock-transfected A431 cells were seeded on 96-well plates (8 × 10^4 cells/well).

| SMILES | maximum inhibition of OATP1A2 ([1]; at 200 μM, SR101) | pIC50 ([1]; read-out: estimated IC50, OATP1A2, SR101 substrate, A431 cells) | maximum inhibition of OATP2B1 ([2]; at 200 μM, pyranine) | pIC50 [2] | pIC50 [1] | inhibition at 10 min, 200 µM ([1]; human, A431 cells overexpressing OATP1A2, pH 7.4, probe sulforhodamine 101 (0.5 μM)) | inhibition at 10 min, 200 µM ([2]; human, A431 cells overexpressing OATP2B1, pH 5.5, probe pyranine (20 μM), at 200 μM, pyranine, read-out: maximum inhibition of OATP2B1) | inhibition of OATP1A2 by Nirmatrelvir alone ([1]; at 20 μM) | IC50 at 10 min ([1]; human, pH 7.4) | inhibition of OATP2B1 by Nirmatrelvir alone ([2]; at 20 μM) |
| --- | --- | --- | --- | --- | --- | --- | --- | --- | --- | --- |
| O=c1nc(NO)ccn1[C@@H]1O[C@H](CO)[C@@H](O)[C@H]1O [EIDD-1931] | 20–40% | < 3.70 | 20–40% | < 3.70 |  |  |  |  |  |  |
| CC(C)C(=O)OC[C@H]1O[C@@H](n2ccc(NO)nc2=O)[C@H](O)[C@@H]1O [EIDD-2801, Molnupiravir] |  |  |  | < 3.70 | < 3.70 | 20 to 40% | 20 to 40% |  |  |  |
| CC(C)(C)[C@H](NC(=O)C(F)(F)F)C(=O)N1C[C@H]2[C@@H]([C@H]1C(=O)N[C@H](C#N)C[C@@H]1CCNC1=O)C2(C)C [Nirmatrelvir] |  |  |  |  |  |  |  | only a minor inhibitory effect | 79.5 µM | only a minor inhibitory effect |
